Results: US20250066379A1, “ANTIMALARIAL AGENTS” (Merck Sharp & Dohme LLC, priority 2021, published 2025)

Test system: parasite
Assay: Parasite LDH growth assay (Parasite Assay)
Format: cell-based, Plasmodium falciparum
Settings: Plasmodium falciparum, 72 h, ring stage parasites, 72 hours growth at 37° C., LDH readout of parasite growth
Method: Assessing Antiparasite Potency in a Parasite LDH Growth Assay (Parasite Assay) The parasite stock was maintained at 4% haematocrit in RPMI-Hepes media 30 buffered with sodium bicarbonate and supplemented with 5% heat inactivated human serum and 0.5% albumax. Approximately 42 hours prior to the potency assay being set up, parasites were synchronized with 5% sorbitol to select for ring stage parasites. On the day of assay set up, a blood smear of the parasite culture was Giemsa stained and counted. The parasitemia was 35 adjusted to 0.7% rings and the haematocrit was diluted to 2% in RPMI-Hepes media buffered with sodium bicarbonate and supplemented with 5% heat inactivated human serum and 0.5% albumax. 30 ul of diluted parasites are then added into 10 μl of media+compound in pre-prepared Greiner TC assay plates. Parasite assay plates were placed in gassed humidified boxes in single layer and allowed to incubate at 37° C. for 72 hours. After 72 hours growth, assay plates are sealed with parafilm and frozen flat, in single file at −80° C. overnight. On the following day, assay plates were allowed to thaw at room temperature for 4 hours to which an LDH assay was performed to measure parasite growth.

Question: With `CC[C@]12CCC/C=C\c3ccc4c(c3)[C@@H](NC(=O)c3ccc5c(c3)[C@@H](CCO5)N(C(=N)N1)C(=O)C2)[C@H](O)C4` [Example 6, (1R,5R,9Z,16R, 17R)-5-ethyl-16-hydroxy-3-imino-24-oxa-2,4,18-triazahexacyclo[18. 6.2.22,5.211,14.013, 17.023,27] dotriaconta-9,11,13,20,22,27, 29-heptaene-19,32-dione] as the compound, how does the EC50 read?
Answer: 2.8 nM

Question: With `CC[C@]12CCC/C=C/c3ccc4c(c3)[C@H](CC(C)(C)O4)NC(=O)c3ccc4c(c3)[C@@H](CCO4)N(C(=N)N1)C(=O)C2` [Example 7, (1R,5R,9E,18S)-5-ethyl-3-imino-16,16-dimethyl-15,25-dioxa-2,4,19-triazahexacyclo[19. 6.2.22,5.211,14.013, 18.024,28] tritriaconta-9,11,13,21,23,28, 30-heptaene-20,33-dione] as the compound, how does the EC50 read?
Answer: 0.9 nM

Question: Which EC50 does the source give for `CC[C@]12CCCCCc3ccc4c(c3)[C@H](CC(C)(C)O4)NC(=O)c3ccc4c(c3)[C@@H](CCO4)N(C(=N)N1)C(=O)C2` [Example 8, (1R,5R,18S)-5-ethyl-3-imino-16,16-dimethyl-15,25-dioxa-2,4,19-triazahexacyclo[19. 6.2.22,5.211,14.013, 18.024,28] tritriaconta-11,13,21,23,28,30-hexaene-20,33-dione] here?
Answer: 1.1 nM

Question: With `CC[C@@]12CCCCCc3ccc4c(c3)[C@H](CC(C)(C)O4)NC(=O)c3ccc4c(c3)[C@@H](CCO4)N(C(=N)N1)C(=O)C2` [Example 9, (1R,5S,18S)-5-ethyl-3-imino-16,16-dimethyl-15,25-dioxa-2,4,19-triazahexacyclo[19. 6.2.22,5.211,14.013, 18.024,28] tritriaconta-11,13,21,23,28,30-hexaene-20,33-dione] as the compound, how does the EC50 read?
Answer: 76.5 nM

Question: With `CC[C@]12CCC/C=C\Cc3ccc4c(c3)[C@H](CC(C)(C)O4)NC(=O)c3ccc4c(c3)[C@@H](CCO4)N(C(=N)N1)C(=O)C2` [Example 10, (1R,5R,9Z,19S)-5-ethyl-3-imino-17,17-dimethyl-16,26-dioxa-2,4,20-triazahexacyclo[20. 6.2.22,5.212,15.014, 19.025,29] tetratriaconta-9,12,14,22(30),23, 25(29),31-heptaene-21,34-dione] as the compound, how does the EC50 read?
Answer: 2.5 nM

Question: `CC[C@]12CCC/C=C/Cc3ccc4c(c3)OC(C)(C)C[C@@H]4NC(=O)c3ccc4c(c3)[C@@H](CCO4)N(C(=N)N1)C(=O)C2` [Example 11, (1R,5R,9E,20S)-5-ethyl-3-imino-18,18-dimethyl-17,27-dioxa-2,4,21-triazahexacyclo[21. 6.2.22,5.112,16.015, 20.026,30] tetratriaconta-9,12(32),13,15,23, 25,30-heptaene-22,34-dione] was tested. Which EC50 did it give?
Answer: 4.6 nM

Question: How did the EC50 turn out when `CC[C@]12CCCCCCc3ccc4c(c3)[C@H](CC(C)(C)O4)NC(=O)c3ccc4c(c3)[C@@H](CCO4)N(C(=N)N1)C(=O)C2` [Example 12, (1R,5R,19S)-5-ethyl-3-imino-17,17-dimethyl-16,26-dioxa-2,4,20-triazahexacyclo[20. 6.2.22,5.212,15.014, 19.025,29] tetratriaconta-12,14,22(30),23, 25(29),31-hexaene-21,34-dione] was run?
Answer: 1 nM

Question: For `CC[C@@]12CCCCCCc3ccc4c(c3)OC(C)(C)C[C@@H]4NC(=O)c3ccc4c(c3)[C@@H](CCO4)N(C(=N)N1)C(=O)C2` [Example 13, (1R,5S,20S)-5-ethyl-3-imino-18,18-dimethyl-17,27-dioxa-2,4,21-triazahexacyclo[21. 6.2.22,5.112,16.015, 20.026,30] tetratriaconta-12(32),13,15,23,25, 30-hexaene-22,34-dione], which EC50 is on record?
Answer: 22 nM

Question: For `CC[C@]12CCCCCCc3ccc4c(c3)OC(C)(C)C[C@@H]4NC(=O)c3ccc4c(c3)[C@@H](CCO4)N(C(=N)N1)C(=O)C2` [Example 14, (1R,5R,20S)-5-ethyl-3-imino-18,18-dimethyl-17,27-dioxa-2,4,21-triazahexacyclo[21. 6.2.22,5.112,16.015, 20.026,30] tetratriaconta-12(32),13,15,23, 25,30-hexaene-22,34-dione], which EC50 is on record?
Answer: 34 nM

Question: How did the EC50 turn out when `CCC12CCCCCc3ccc4c(c3)[C@H](CC(C)(C)O4)NC(=O)c3ccc4c(c3)[C@@H]([C@H](COC)CO4)N(C(=N)N1)C(=O)C2` (stereo partly drawn) [Example 16A, (1R,18S,27R)-5-ethyl-3-imino-27-(methoxymethyl)-16,16-dimethyl-15,25-dioxa-2,4,19-triazahexacyclo[19. 6.2.22,5.211,14.013, 18.024,28] tritriaconta-11,13,21,23,28,30-hexaene-20,33-dione] was run?
Answer: 61.5 nM
